In the assay the test system is Vaccinia virus. The assay can be described thus: Antiviral activity against Vaccinia virus infected in human skin fibroblasts assessed as inhibition of virus-induced cytopathogenicity. Format: functional, Orthopoxvirus vaccinia.
Turning to `O=c1[nH]c(=O)n([C@H]2C[C@H](O)[C@@H](CO)O2)cc1F` [FLOXURIDINE], the ID50 is 4 ×10⁻⁷ M.
The figure for `N#Cc1cn([C@@H]2O[C@H](CO)[C@@H](O)[C@H]2O)c(=O)[nH]c1=O` is over 7 ×10⁻⁴ M; for `O=c1[nH]c(=O)n([C@H]2C[C@H](O)[C@@H](CO)O2)cc1C(F)(F)F` [TRIFLURIDINE] it is 1.3 ×10⁻⁶ M.
On to `O=c1[nH]c(=O)n([C@H]2C[C@H](O)[C@@H](CO)O2)cc1Br` [BROXURIDINE], for which the ID50 amounted to 6.5 ×10⁻⁷ M.
For `O=c1[nH]c(=O)n([C@H]2C[C@H](O)[C@@H](CO)O2)cc1I` [IDOXURIDINE], the ID50 is 1.1 ×10⁻⁶ M.
The figure for `O=c1[nH]c(=O)n([C@H]2C[C@H](O)[C@@H](CO)O2)cc1Cl` [CHLORODEOXYURIDINE] is 1.5 ×10⁻⁶ M; for `Nc1ncnc2c1ncn2[C@@H]1O[C@H](CO)[C@@H](O)[C@@H]1O` [VIDARABINE] it is 2.6 ×10⁻⁵ M; for `N#Cc1cn([C@H]2C[C@H](O)[C@@H](CO)O2)c(=O)[nH]c1=O` it is 2.7 ×10⁻⁵ M.

Source of the values: ChEMBL document CHEMBL3244165, “Improved synthesis and in vitro antiviral activities of 5-cyanouridine and 5-cyano-2'-deoxyuridine” (J Med Chem, 1977).
